From patent publication US7479561B2, “4-(2,4-dichloro-5-methoxyphenyl)amino-6-methoxy-7-{[5-substituted-amino)methyl]-3-furyl}-3-quinolinecarbonitriles as kinase inhibitors” (Wyeth, priority 2004, dated 2009)
Values joined by “and” are separate entries in the source; they are usually repeats but may differ in a detail not shown here. Identical values can stand only once. Like-named read-outs stand apart in the source and are kept apart here.

Target: T1, Recombinant human Src enzyme (Homo sapiens, UniProt P12931)
T1 construct: purchased PanVera P3044
T1 sequence (P12931 whole entry): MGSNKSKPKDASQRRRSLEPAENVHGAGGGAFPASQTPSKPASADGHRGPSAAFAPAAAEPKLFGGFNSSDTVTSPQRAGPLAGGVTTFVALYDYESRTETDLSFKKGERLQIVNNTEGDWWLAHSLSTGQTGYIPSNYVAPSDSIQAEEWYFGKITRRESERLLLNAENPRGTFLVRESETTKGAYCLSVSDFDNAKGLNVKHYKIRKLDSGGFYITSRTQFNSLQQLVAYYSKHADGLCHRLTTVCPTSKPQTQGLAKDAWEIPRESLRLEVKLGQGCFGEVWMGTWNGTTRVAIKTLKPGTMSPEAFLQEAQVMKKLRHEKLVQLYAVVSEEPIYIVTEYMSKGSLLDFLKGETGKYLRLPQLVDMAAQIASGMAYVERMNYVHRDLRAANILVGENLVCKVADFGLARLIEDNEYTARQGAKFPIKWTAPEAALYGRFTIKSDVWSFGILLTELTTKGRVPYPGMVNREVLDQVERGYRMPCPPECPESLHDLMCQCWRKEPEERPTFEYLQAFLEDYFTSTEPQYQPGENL
Experiment: Src Kinase Assay (LANCE FRET)
Type: biochemical
Conditions: multiple entries = tested multiple times
Method: Recombinant human Src enzyme was obtained from PanVera (P3044). […] Homogeneous fluorescence resonance energy transfer kinase assays were performed using the europium/APC detection format (LANCE, Perkin Elmer). Src enzyme (10 ng) was mixed with biotinylated peptide (final concentration 2 μM), 50 mM Hepes (pH 7.5), 10 mM MgCl2, 20 ug/ml BSA, 0.001% Brij-35 (Sigma), 100 μM ATP, 1% DMSO. The kinase reaction was incubated for 70 min at 37° C. The reaction was stopped with EDTA at a final concentration of 30 mM EDTA/25 mM Hepes (pH 7.5)/10 μg/ml BSA. The mixture was combined with Eu-labeled anti-phosphotyrosine antibody PT66 (Perkin Elmer, AD0068) and Streptavidin Surelight-APC (Perkin Elmer, CR130-100) in 50 mM Hepes (pH 7.5)/20 μg/ml BSA, and incubated for 30 min according to manufacturer's specifications. […] Multiple entries for a given compound indicate that it was tested multiple times.

[1] = 100 μM ATP, read-out: Src enzyme IC50

SMILES	IC50 [1]	IC50 (Src enzyme IC50, 100 μM ATP) [nM]
COc1cc(Nc2c(C#N)cnc3cc(-c4coc(CN5CCCC5)c4)c(OC)cc23)c(Cl)cc1Cl [Example 6, 4-[(2,4-dichloro-5-methoxyphenyl)amino]-6-methoxy-7-[5-(pyrrolidin-1-ylmethyl)-3-furyl]quinoline-3-carbonitrile]	0.8 nM and 0.9 nM	
COc1cc(Nc2c(C#N)cnc3cc(-c4coc(CN5CCCCC5)c4)c(OC)cc23)c(Cl)cc1Cl [Example 7, 4-[(2,4-dichloro-5-methoxyphenyl)amino]-6-methoxy-7-[5-(piperidin-1-ylmethyl)-3-furyl]quinoline-3-carbonitrile]		0.7
CCN(CC)Cc1cc(-c2cc3ncc(C#N)c(Nc4cc(OC)c(Cl)cc4Cl)c3cc2OC)co1 [Example 8, 4-[(2,4-dichloro-5-methoxyphenyl)amino]-7-{5-[(diethylamino)methyl]-3-furyl}-6-methoxyquinoline-3-carbonitrile]	0.9 nM and 0.8 nM	
CCN1CCN(Cc2cc(-c3cc4ncc(C#N)c(Nc5cc(OC)c(Cl)cc5Cl)c4cc3OC)co2)CC1 [Example 9, 4-[(2,4-dichloro-5-methoxyphenyl)amino]-7-{5-[(4-ethylpiperazin-1-yl)methyl]-3-furyl}-6-methoxyquinoline-3-carbonitrile]	0.6 nM and 0.7 nM	
COc1cc(Nc2c(C#N)cnc3cc(-c4coc(CN5CCN(C6CCN(C)CC6)CC5)c4)c(OC)cc23)c(Cl)cc1Cl [Example 10, 4-[(2,4-dichloro-5-methoxyphenyl)amino]-6-methoxy-7-(5-{[4-(1-methylpiperidin-4-yl)piperazin-1-yl]methyl}-3-furyl)quinoline-3-carbonitrile]	0.5 nM	
COc1cc(Nc2c(C#N)cnc3cc(-c4coc(CN5CCC(N6CCCC6)CC5)c4)c(OC)cc23)c(Cl)cc1Cl [Example 11, 4-[(2,4-dichloro-5-methoxyphenyl)amino]-6-methoxy-7-{5-[(4-pyrrolidin-1-ylpiperidin-1-yl)methyl]-3-furyl}quinoline-3-carbonitrile]	1.1 nM and 1 nM	
CCCCN1CCN(Cc2cc(-c3cc4ncc(C#N)c(Nc5cc(OC)c(Cl)cc5Cl)c4cc3OC)co2)CC1 [Example 12, 7-{5-[(4-butylpiperazin-1-yl)methyl]-3-furyl}-4-[(2,4-dichloro-5-methoxyphenyl)amino]-6-methoxyquinoline-3-carbonitrile]	2.5 nM and 2.1 nM	
COc1cc(Nc2c(C#N)cnc3cc(-c4coc(CN5CCN(CCN6CCOCC6)CC5)c4)c(OC)cc23)c(Cl)cc1Cl [Example 13, 4-[(2,4-dichloro-5-methoxyphenyl)amino]-6-methoxy-7-(5-{[4-(2-morpholin-4-ylethyl)piperazin-1-yl]methyl}-3-furyl)quinoline-3-carbonitrile]	1 nM	
COc1cc(Nc2c(C#N)cnc3cc(-c4coc(CN5CCN(Cc6ccccc6)CC5)c4)c(OC)cc23)c(Cl)cc1Cl [Example 14, 7-{5-[(4-benzylpiperazin-1-yl)methyl]-3-furyl}-4-[(2,4-dichloro-5-methoxyphenyl)amino]-6-methoxyquinoline-3-carbonitrile]	33.7 nM and 56.2 nM	
COc1cc(Nc2c(C#N)cnc3cc(-c4coc(CN5CCN(CCc6ccccc6)CC5)c4)c(OC)cc23)c(Cl)cc1Cl [Example 15, 4-[(2,4-dichloro-5-methoxyphenyl)amino]-6-methoxy-7-(5-{[4-(2-phenylethyl)piperazin-1-yl]methyl}-3-furyl)quinoline-3-carbonitrile]	18.3 nM and 13.3 nM	
CCCN(CCC)Cc1cc(-c2cc3ncc(C#N)c(Nc4cc(OC)c(Cl)cc4Cl)c3cc2OC)co1 [Example 16, 4-[(2,4-dichloro-5-methoxyphenyl)amino]-7-{5-[(dipropylamino)methyl]-3-furyl]-6-methoxyquinoline-3-carbonitrile]	10.2 nM and 6.5 nM	
COc1cc(Nc2c(C#N)cnc3cc(-c4coc(CN5CCS(=O)(=O)CC5)c4)c(OC)cc23)c(Cl)cc1Cl [Example 17, 4-[(2,4-dichloro-5-methoxyphenyl)amino]-7-{5-[(1,1-dioxidothiomorpholin-4-yl)methyl]-3-furyl}-6-methoxyquinoline-3-carbonitrile]	2.4 nM and 2.1 nM	
COc1cc(Nc2c(C#N)cnc3cc(-c4coc(CN5CC[S+]([O-])CC5)c4)c(OC)cc23)c(Cl)cc1Cl [Example 18, 4-[(2,4-dichloro-5-methoxyphenyl)amino]-6-methoxy-7-{5-[(1-oxidothiomorpholin-4-yl)methyl]-3-furyl}quinoline-3-carbonitrile]	1.5 nM and 2.4 nM	
COc1cc(Nc2c(C#N)cnc3cc(-c4coc(CN5CCN(C6CCCCC6)CC5)c4)c(OC)cc23)c(Cl)cc1Cl [Example 19, 7-{5-[(4-cyclohexylpiperazin-1-yl)methyl]-3-furyl}-4-[(2,4-dichloro-5-methoxyphenyl)amino]-6-methoxyquinoline-3-carbonitrile]	3.6 nM and 2.8 nM	
COc1ccc(N2CCN(Cc3cc(-c4cc5ncc(C#N)c(Nc6cc(OC)c(Cl)cc6Cl)c5cc4OC)co3)CC2)cc1 [Example 20, 4-[(2,4-dichloro-5-methoxyphenyl)amino]-6-methoxy-7-(5-{[4-(4-methoxyphenyl)piperazin-1-yl]methyl}-3-furyl)quinoline-3-carbonitrile]	10 nM and 11.7 nM	
COc1cc(Nc2c(C#N)cnc3cc(-c4coc(CN5CCN(c6ccncc6)CC5)c4)c(OC)cc23)c(Cl)cc1Cl [Example 21, 4-[(2,4-dichloro-5-methoxyphenyl)amino]-6-methoxy-7-[5-[(4-pyridin-4-ylpiperazin-1-yl)methyl]-3-furyl}quinoline-3-carbonitrile]	2.2 nM and 1.9 nM	
COc1cc(Nc2c(C#N)cnc3cc(-c4coc(CN5CCN(c6ccc(C)cc6)CC5)c4)c(OC)cc23)c(Cl)cc1Cl [Example 22, 4-[(2,4-dichloro-5-methoxyphenyl)amino]-6-methoxy-7-(5-{[4-(4-methylphenyl)piperazin-1-yl]methyl}-3-furyl)quinoline-3-carbonitrile]	12.8 nM and 14.3 nM	
COc1cc(Nc2c(C#N)cnc3cc(-c4coc(CN5CCN(c6ccc(Cl)cc6)CC5)c4)c(OC)cc23)c(Cl)cc1Cl [Example 23, 7-(5-{[4-(4-chlorophenyl)piperazin-1-yl]methyl}-3-furyl)-4-[(2,4-dichloro-5-methoxyphenyl)amino]-6-methoxyquinoline-3-carbonitrile]	18.9 nM and 17 nM	
COc1cc(Nc2c(C#N)cnc3cc(-c4coc(CN5CCN(c6ccc(O)cc6)CC5)c4)c(OC)cc23)c(Cl)cc1Cl [Example 24, 4-[(2,4-dichloro-5-methoxyphenyl)amino]-7-(5-{[4-(4-hydroxyphenyl)piperazin-1-yl]methyl}-3-furyl)-6-methoxyquinoline-3-carbonitrile]	6 nM and 5.6 nM	
COc1cc(Nc2c(C#N)cnc3cc(-c4coc(CN5CCN(c6ccc(C(F)(F)F)cc6)CC5)c4)c(OC)cc23)c(Cl)cc1Cl [Example 25, 4-[(2,4-dichloro-5-methoxyphenyl)amino]-6-methoxy-7-[5-({4-[4-(trifluoromethyl)phenyl]piperazin-1-yl}methyl)-3-furyl]quinoline-3-carbonitrile]	14.1 nM and 14.4 nM	
COc1cc(Nc2c(C#N)cnc3cc(-c4coc(CN5CCSCC5)c4)c(OC)cc23)c(Cl)cc1Cl [Example 26, 4-[(2,4-dichloro-5-methoxyphenyl)amino]-6-methoxy-7-[5-(thiomorpholin-4-ylmethyl)-3-furyl]quinoline-3-carbonitrile]	9.1 nM and 7.8 nM	
